From PMC10057528, “Trypanosoma cruzi Sirtuin 2 as a Relevant Druggable Target: New Inhibitors Developed by Computer-Aided Drug Design” (Pharmaceuticals, 2023)
Where two headings read alike, the source gives them in different places.

Tests used:
Chagas disease = system: Chagas disease; parameters: method as in PMID 29357372; conditions: cited from earlier work
[1] = system: T. cruzi Sir2-related protein 1 (TcSir2rp1); parameters: method as in PMID 29357372, PMID 19937668; conditions: cited from earlier work
TcSir2 = molecular target: T1, TcSir2 (Trypanosoma cruzi, UniProt Q4DP02); test: Recombinant TcSir2 activity assay (fluorescent peptide deacetylation); type: biochemical; conditions: for IC50: recombinant TcSir2 0.1 μM, 10 μM peptide, 25 μM NAD+, 37 °C, ND = values measured but did not converge IC50 significantly
T1 sequence (Q4DP02 1-359): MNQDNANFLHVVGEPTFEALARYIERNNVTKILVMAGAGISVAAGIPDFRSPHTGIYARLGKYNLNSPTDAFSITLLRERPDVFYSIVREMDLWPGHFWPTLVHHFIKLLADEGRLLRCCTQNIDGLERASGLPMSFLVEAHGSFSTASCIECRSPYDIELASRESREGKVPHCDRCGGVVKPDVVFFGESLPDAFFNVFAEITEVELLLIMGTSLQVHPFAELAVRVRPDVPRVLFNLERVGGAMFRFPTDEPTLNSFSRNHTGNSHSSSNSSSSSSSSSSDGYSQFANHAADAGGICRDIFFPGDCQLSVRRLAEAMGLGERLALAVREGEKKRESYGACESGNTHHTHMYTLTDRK
Source text: The peptide substrate (Abz-Gly-Pro-AcetylLys-Ser-Gln-EDDnp, where Abz stands for ortho-aminobenzoic), based on the TcSir2 specificity, was acquired from AminoTech (São Paulo, Brazil). This substrate contains an acetyl-Lys, which is available for trypsin cleavage only when the TcSir2 deacetylates the lysine side chain. After peptide deacetylation and cleavage, the fluorescent moiety (Abz) and the EDDnp suppressor group (N-[2,4-dinitrophenyl] ethylenediamine) are separated, and fluorescence (420 nm) can occur upon excitation at 320 nm. The TcSir2 activity assays were performed at 37 °C in a 25 mM Tris-HCl buffer with pH 8 and containing 137 mM NaCl, 2.7 mM KCl, and 1 mM MgCl2. The assays used 0.1 μM purified TcSir2 enzyme, 10 μM Abz-Gly-Pro-AcetylLys-Ser-Gln-EDDnp peptide, and 25 μM NAD^+ cofactor. After a 15 min incubation, 12 mM nicotinamide and 0.6 mg/mL trypsin (Sigma Aldrich, Sao Paulo, Brazil, N3376) were added to stop the reaction and cleave the deacetylated peptide (30 min at 37 °C). A control was also prepared without trypsin to detect the baseline fluorescence of the uncleaved peptide. Increasing concentrations of the putative inhibitory compound prepared in DMSO were also tested under the same conditions, with controls to detect the potential effect of DMSO at a maximum concentration of 5% (v/v) on TcSir2. Fluorescence was measured using a TECAN-InfinityPro2000 plate reader.
The percentage of inhibition data was calculated using the equation: Inhibition (%) = (1 − vi/vc) × 100, where vi represents the initial rate in the presence of the putative TcSir2 inhibitor, and vc is the initial rate of the control assay containing only DMSO. IC50 values were calculated based on the percentage of inhibition and concentration of the inhibitor using non-linear regression with least squares on GraphPad Prism (v8.1, GraphPad software, La Jolla, CA, USA). […] Km and Vmax in the presence and absence of the inhibitor were obtained by fitting the initial rate and [NAD^+] into the Michaelis-Menten equation on GraphPad Prism (GraphPad Prism version v8.1, for Windows, GraphPad Software, San Diego, California USA, www.graphpad.com).
Supplementary methods – Enzyme kinetic characterisation
The enzyme kinetic assay for TcSir2, based on a previous publication1 was divided into three steps. In the first one, the recombinant TcSir2, NAD+ and the peptide substrate (Abz-Gly-Pro-AcetylLys-Ser-Gln-EDDnp) were incubated for 15 min at 37° C.
In the second step, in order to stop the reaction, 12 mM nicotinamide was added to the reaction medium. Finally in the third step trypsin was added and the reaction medium incubated for 30 min at 37° C, as previously described1. Trypsin cleaves this substrate in the linkage between lysine and serine only when the acetyl moiety had been previously […]
when lysine was acetylated2. […]
r2 = 0.99, Fig. S5a) and the peptide substrate (2.1 µM, r2 = 0.97, Fig. S5b) were determined using seven different substrate concentrations, whereas one of them was kept constant.

T. cruzi amastigote = test: In vitro trypanocidal activity with amastigote forms (Tulahuen LacZ, CPRG); type: cell-based, Trypanosoma cruzi; conditions: intracellular amastigotes in LLCMK2 cells, ND* = values measured but did not converge IC50 significantly, read-out: IC50 T. cruzi ama
Experimental: In 96-well plates, cells from the LLCMK2 lineage were seeded at a concentration of 5 × 10^4 cells/mL (80 μL). The trypomastigote forms of the Tulahuen LacZ strain were added at a concentration of 5 × 10^5 cells/mL (in a total of 20 μL) and, subsequently incubated for 24 h at 37 °C with a 5% CO2 atmosphere. Next, the trypomastigote forms present in the supernatant were washed, leaving only the amastigote forms. Serial dilutions of the compounds were added (1.95 to 200 µM) and the plate was incubated for 72 h at 37 °C with a 5% CO2 atmosphere. At the end of this period, the CPRG substrate (chlorophenol red β-D-galactopyranoside, 400 μM in 0.3% Triton X-100, pH 7.4) was added and incubated for additional 6 h. After incubation, the sample’s absorbance values were measured using a spectrophotometer at 570 nm.

[2] = Mammalian cell viability assay (MTT); type: cell-based; conditions: rhesus monkey; LLCMK2 cells, MTT, 72 h; ND* = values measured but did not converge IC50 significantly; read-out: EC50 Cell Toxicity
Experimental: (§1) LLCMK2 cells were maintained in RPMI-1640 medium supplemented with 10% fetal bovine serum (FBS) (Gibco, Carlsbad, CA, USA), penicillin/streptomycin (100 μg.mL^−1 and 0.1 mg.mL^−1, respectively, Sigma-Aldrich, St. Louis, Mo, USA) and 2 mM L-glutamine, and treated every second day. […] All cells were maintained in humidified CO2 at 37 °C. Cells were obtained at the third passage, propagated, and used in experiments between the fourth and fifth passages. Cells were routinely checked for contamination with mycoplasma by PCR. […] The principle of this method, as described by Mosmann et al., consists in measuring the cellular viability of the enzymatic activity of […] of living cells. […] At the end of the period incubation. 50 μL MTT (Sigma-Aldrich Corp. St. Louis, MO, USA) at the concentration of 2 mg.mL^−1. After 4 h incubation, 50 μL DMSO per well was added to dissolve formazan blue crystals. The absorbance was determined at 570 nm using Biotek Synergy HT microplate spectrophotometer. The percentage of cell viability was determined from the following formula (40): Cell Viability (%) = (Treatment Absorbance)/(Control Absorbance negative) × 100.

LLCMK2 cells = test: Mammalian cell viability assay (MTT); type: cell-based; conditions: Macaca mulatta, LLC-MK2, Figure 4g; read-out: IC50 mammalian cell-lines
Experimental: as §1

[3] = substrate: NC(=O)c1ccc[n+](C2OC(COP(=O)([O-])OP(=O)(O)OCC3OC(n4cnc5c(N)ncnc54)C(O)C3O)C(O)C2O)c1; test: Recombinant TcSir2 activity assay (fluorescent peptide deacetylation); type: biochemical, Trypanosoma cruzi; conditions: other: TcSir2, r2 = 0.99; pH 8.0; 37.0 °C
Source text: The peptide substrate (Abz-Gly-Pro-AcetylLys-Ser-Gln-EDDnp, where Abz stands for ortho-aminobenzoic), based on the TcSir2 specificity, was acquired from AminoTech (São Paulo, Brazil). This substrate contains an acetyl-Lys, which is available for trypsin cleavage only when the TcSir2 deacetylates the lysine side chain. After peptide deacetylation and cleavage, the fluorescent moiety (Abz) and the EDDnp suppressor group (N-[2,4-dinitrophenyl] ethylenediamine) are separated, and fluorescence (420 nm) can occur upon excitation at 320 nm. The TcSir2 activity assays were performed at 37 °C in a 25 mM Tris-HCl buffer with pH 8 and containing 137 mM NaCl, 2.7 mM KCl, and 1 mM MgCl2. […] A control was also prepared without trypsin to detect the baseline fluorescence of the uncleaved peptide. […] Fluorescence was measured using a TECAN-InfinityPro2000 plate reader.
The percentage of inhibition data was calculated using the equation: Inhibition (%) = (1 − vi/vc) × 100, where vi represents the initial rate in the presence of the putative TcSir2 inhibitor, and vc is the initial rate of the control assay containing only DMSO. IC50 values were calculated based on the percentage of inhibition and concentration of the inhibitor using non-linear regression with least squares on GraphPad Prism (v8.1, GraphPad software, La Jolla, CA, USA). […]

[4] = Trypanosoma cruzi, LLC-MK2, 72 h

In the case of O=C1c2cccc3cccc(c23)C(=O)N1CCCNCCCCNCCCNCCCN1C(=O)c2cccc3cccc(c23)C1=O [BNIP-spermidine, bisnaphthalimidopropyl-spermidine], the “performance in the mouse model of Chagas disease” value (Chagas disease) is given as “performed poorly” and the “inhibition of NAD+-dependent deacetylase activity” value [1] is given as “inhibition”.

O=C(Cn1ccnc1[N+](=O)[O-])NCc1ccccc1 [BZN, benznidazole, reference compound] showed an IC50 (TcSir2; read-out: IC50 (TcSir2)) of 9.33 ± 0.01 µM, an IC50 (T. cruzi amastigote; [4]) of 4.55 ± 0.03 µM and an EC50 at 72 h [2] of 204.1 ± 0.81 µM.

Work on O=C(NCc1coc(-c2ccccc2)n1)Nc1ccc(-c2noc(C(F)(F)F)n2)cc1 [CDMS-01] yielded a Ki (TcSir2) of 21.5 µM, a Vmax (TcSir2; 3 µM CDMS-01) of 0.29 µM and a Vmax (TcSir2; 5 µM CDMS-01) of 0.29 µM. For the same molecule, the Vmax (TcSir2; 10 µM CDMS-01) was 0.29 µM, the Vmax (TcSir2; 17 µM CDMS-01) was 0.29 µM and the Vmax (TcSir2; 20 µM CDMS-01) was 0.29 µM. For the same molecule, the Vmax (TcSir2; 30 µM CDMS-01) was 0.29 µM, the Vmax (TcSir2; 40 µM CDMS-01) was 0.29 µM and the IC50 (TcSir2; IC50 (TcSir2)) was 40 µM. For the same molecule, the inhibition mechanism (TcSir2; effect on apparent Km and Vmax for NAD+) was “competitive”, the IC50 (T. cruzi amastigote; [4]) was 76.7 µM and the IC50 (T. cruzi amastigote; 72 h) was 76.68 ± 0.02 µM. It also gave an EC50 at 72 h [2] of 135.9 ± 0.5 µM and an IC50 (LLCMK2 cells) of 136 µM.

For NC(=O)c1cccnc1 [Nicotinamide, reference compound], the IC50 (TcSir2; IC50 (TcSir2)) is given as 987.4 ± 0.64 µM and the “inhibition of NAD+-dependent deacetylase activity” value [1] is given as “inhibition”.

With Abz-Gly-Pro-AcetylLys-Ser-Gln-EDDnp the Km (TcSir2; TcSir2, r2 = 0.97, read-out: Km for the peptide substrate) was 2.1 µM.

B1: TcSir2 (Trypanosoma cruzi strain CL Brener) (protein)
chain: MNQDNANFLHVVGEPTFEALARYIERNNVTKILVMAGAGISVAAGIPDFRSPHTGIYARLGKYNLNSPTDAFSITLLRERPDVFYSIVREMDLWPGHFWPTLVHHFIKLLADEGRLLRCCTQNIDGLERASGLPMSFLVEAHGSFSTASCIECRSPYDIELASRESREGKVPHCDRCGGVVKPDVVFFGESLPDAFFNVFAEITEVELLLIMGTSLQVHPFAELAVRVRPDVPRVLFNLERVGGAMFRFPTDEPTLNSFSRNHTGNSHSSSNSSSSSSSSSSDGYSQFANHAADAGGICRDIFFPGDCQLSVRRLAEAMGLGERLALAVREGEKKRESYGACESGNTHHTHMYTLTDRK
In the case of B1, the Km [3] is reported as 25 µM.
